The values below come from patent US10792272B2, “Methods for treatment of Clostridium difficile infections” (priority 2016, dated 2020).

In data set [1] the test system is C. difficile 4118 (CD4118, ATCC BAA-1870, BI/NAP1/027). In words: MIC by broth microdilution against C. difficile 4118. It counts as cell-based, Clostridium difficile. The settings on record: Clostridioides difficile.
The next data set has as its system S. aureus RN4220. The data set is described as follows: MIC against aerobic bacteria. Format: cell-based. The settings on record: Staphylococcus aureus.
The subject of a further data set is C. sporogenes ATCC 15579. In words: microbe, parasite or virus in culture. Format: cell-based, Clostridium sporogenes. The settings on record: Clostridium sporogenes, ATCC15579, read-out: MIC C. sporogenes ATCC 15579.
For data set [2], the system named is B. thetaiotaomicron ATCC 29148. The data set is described as follows: microbe, parasite or virus in culture. Format: cell-based. The settings on record: Bacteroides thetaiotaomicron, ATCC29148, read-out: MIC B. thetaiotaomicron ATCC 29148.
For data set [3] the following is noted: in vivo; cited from earlier work.
Another data set deals with liver carcinoma HepG2. In words: In vitro cytotoxicity MTS assay, HepG2. The settings on record: for cell viability HepG2 (MTS): 16 h. On the technique in general: Tetrazolium assays rely on reduction of a dye to a coloured formazan, in cell work by metabolically active cells.
Data set [4] has as its system embryonic kidney HEK 293T/17. The data set is described as follows: In vitro cytotoxicity MTS assay, HEK 293T/17. The settings on record: for cell viability HEK 293T/17 (MTS): 16 h.
Data set [5] concerns Clostridium difficile strain 4118. The data set is described as follows: Minimum bactericidal concentration (MBC), logarithmic- and stationary-phase cells. It counts as cell-based. The settings on record: 3-log reduction of inoculum; for MBC: Clostridioides difficile. The protocol:
The MBClog values of the protonophores were determined to be 0.25-2 μg/mL (˜4 to 8-fold greater than their respective MIC values).
Clostridium difficile strain 4118 was grown to OD600˜0.4-0.5 (logarithmic phase) or for 24 h (stationary phase), and thereafter added to two-fold serial dilutions of test compounds. Cultures were incubated for 20-24 h at 37° C., and then viable counts were enumerated on BHIS agar plates. […] MBC measurements were performed in duplicate.

A further data set relates to B. subtilis ATCC 6051. In words: MIC against aerobic bacteria. The settings on record: Bacillus subtilis, ATCC6051, read-out: MIC B. subtilis ATCC 6051. It counts as cell-based, Bacillus subtilis.
In another data set the test system is S. epidermidis 1457. In words: MIC against aerobic bacteria. The settings on record: Staphylococcus epidermidis, 1457, read-out: MIC S. epidermidis 1457. It counts as cell-based.
For a further data set, the system named is A. baumannii M2. The data set is described as follows: MIC against aerobic bacteria. Format: cell-based. The settings on record: Acinetobacter baumannii, M2, read-out: MIC A. baumannii M2.
The next data set deals with P. aeruginosa PAO1. The data set is described as follows: MIC against aerobic bacteria. Format: cell-based, Pseudomonas aeruginosa. The settings on record: Pseudomonas aeruginosa, PAO1, read-out: MIC P. aeruginosa PAO1.
For data set [6], the system named is C. clostridioforme ATCC 25537. In words: MIC against anaerobic bacteria. The settings on record: Clostridium, ATCC25537, read-out: MIC C. clostridioforme ATCC 25537. Format: cell-based, Clostridium clostridioforme.
Another data set deals with P. distasonis ATCC 8503. In words: MIC against anaerobic bacteria. The settings on record: Parabacteroides distasonis, ATCC8503, read-out: MIC P. distasonis ATCC 8503. It counts as cell-based, Parabacteroides distasonis.
The next data set concerns P. nigrescens ATCC 33563. The data set is described as follows: MIC against anaerobic bacteria. Format: cell-based, Prevotella nigrescens. The settings on record: Prevotella nigrescens, ATCC33563, read-out: MIC P. nigrescens ATCC 33563.
For another data set, the system named is sheep erythrocytes. The data set is described as follows: Hemolysis assay. The settings on record: tested at 32 μg/mL; 37° C., 1 h.
In data set [7] the test system is C. difficile 630 (CD630, ATCC BAA-1382). The data set is described as follows: MIC by broth microdilution against C. difficile 630. It counts as cell-based, Clostridium difficile. The settings on record: Clostridioides difficile, ATCCBAA1382; 20-24 h, 37° C. A general note: In broth dilution the organism is exposed to a series of concentrations in liquid medium.
The subject of data set [8] is C. difficile strains 630 (CD630) and 4118 (CD4118). In words: MIC / growth inhibition against C. difficile, covering both strains. Format: cell-based, Clostridium difficile. The settings on record: Clostridioides difficile, read-out: MIC against C. difficile.
For data set [9], the system named is panel of aerobic and anaerobic organisms. It counts as cell-based.
Setting [10] is: ATCCBAA1870, Table 1, strain 4118, 20-24 h, 37° C., read-out: MIC C. difficile 4118.
Where [11] appears, read: RN4220, aerobic, read-out: MIC S. aureus RN4220.
[12] abbreviates: logarithmic-phase cells of strain 4118, read-out: MBClog.
Setting [13] is: stationary-phase cells of strain 4118, read-out: MBCstat.

≈ marks a conversion by molar mass, not a printed value. Where two headings read alike, the source gives them in different places.

Protocol for sheep erythrocytes: Sheep red blood cells (Innovative Research, Novi, Mich., USA) were washed three times with PBS pH 7.4. A 3% cell suspension in PBS (100 μL) was added to test compounds in PBS (100 μL), and then incubated at 37° C. for 1 h. The plate was centrifuged at 500×g for 10 min, and supernatants (100 μL) were transferred to a clean 96-well plate. Hemolysis was determined by measuring absorbance at 540 nm, with 1% Triton X-100 as the positive control and 0.5% DMSO in PBS as the negative control. Hemolysis assays were performed in triplicate.

In the case of `Cc1cc(C(C#N)c2ccc(Cl)cc2)c(Cl)cc1NC(=O)c1cc(I)cc(I)c1O` (stereo not drawn) [Closantel, reference compound], the MIC in data set [1] (setting [10]) was 0.25 µg/mL (≈ 0.377 µM); in the data set on S. aureus RN4220 (setting [11]), 0.25 µg/mL (≈ 0.377 µM); in the data set with C. sporogenes ATCC 15579 it was 1 µg/mL (≈ 1.51 µM); in data set [2], over 32 µg/mL. Further, the “excreted unchanged in the feces” value in data set [3] is recorded as at most 90%.

On to `O=C(Nc1ccc([N+](=O)[O-])cc1Cl)c1cc(Cl)ccc1O` [Niclosamide, niclosamide], for which, in [1] (setting [10]), the MIC was determined as 4 µg/mL (≈ 12.2 µM). In addition, the “cell viability HepG2 (MTS)” value in the data set on liver carcinoma HepG2 (0.125 μg/mL) is “significant decrease in viability”. Also, the “cell viability HEK 293T/17 (MTS)” value in [4] (0.125 μg/mL) is “significant decrease in viability”.

For `O=C(Nc1ccc(Oc2ccc(Cl)cc2)c(Cl)c1)c1cc(I)cc(I)c1O` [Rafoxanide, rafoxanide, reference compound], the MIC is 0.13 µg/mL (≈ 0.208 µM) in data set [1] (ATCCBAA1870); 0.13 µg/mL (≈ 0.208 µM) in data set [1] (ATCCBAA1870, read-out: MIC C. difficile 4118); at most 0.03 µg/mL with B. subtilis ATCC 6051; 0.25 µg/mL (≈ 0.399 µM) with S. aureus RN4220 (setting [11]); at most 0.03 µg/mL with S. epidermidis 1457; over 32 µg/mL in the data set with A. baumannii M2. Moreover, the MIC was over 32 µg/mL in the data set with P. aeruginosa PAO1; 1 µg/mL (≈ 1.6 µM) in the data set with C. sporogenes ATCC 15579; 1 µg/mL (≈ 1.6 µM) in [6]; over 32 µg/mL in data set [2]; 8 µg/mL (≈ 12.8 µM) in the data set on P. distasonis ATCC 8503; 8 µg/mL (≈ 12.8 µM) with P. nigrescens ATCC 33563. The MBC came out at 0.5 µg/mL (≈ 0.799 µM) in data set [5] (setting [12]) and 1 µg/mL (≈ 1.6 µM) in data set [5] (setting [13]). Further, in the data set on sheep erythrocytes, the “rupture of red blood cells (hemolysis)” value is reported as “did not cause rupture of red blood cells”. For the same compound, in the data set on liver carcinoma HepG2 (8 μg/mL), the “cell viability HepG2 (MTS)” value is “no apparent effect on mammalian cell viability”. Moreover, the “in vitro toxicity toward HepG2 compared with niclosamide” value in the data set on liver carcinoma HepG2 (relative to niclosamide) is reported as “comparably lower in vitro toxicities”. Also, in data set [4] (8 μg/mL), the “cell viability HEK 293T/17 (MTS)” value is given as “no apparent effect on mammalian cell viability”. In addition, in data set [4] (relative to niclosamide), the “in vitro toxicity toward HEK 293T/17 compared with niclosamide” value is “comparably lower in vitro toxicities”.

For `CN[C@H](CC(C)C)C(=O)N[C@H]1C(=O)N[C@@H](CC(N)=O)C(=O)N[C@H]2C(=O)N[C@H]3C(=O)N[C@H](C(=O)N[C@H](C(=O)O)c4cc(O)cc(O)c4-c4cc3ccc4O)[C@H](O)c3ccc(c(Cl)c3)Oc3cc2cc(c3O[C@@H]2O[C@H](CO)[C@@H](O)[C@H](O)[C@H]2O[C@H]2C[C@](C)(N)[C@H](O)[C@H](C)O2)Oc2ccc(cc2Cl)[C@H]1O` [Vancomycin, vancomycin, reference compound], the MIC in data set [7] stood at 1 µg/mL (≈ 0.69 µM); in data set [1] (ATCCBAA1870), 2 µg/mL (≈ 1.38 µM); in [1] (ATCCBAA1870, 20-24 h, 37° C., read-out: MIC C. difficile 4118), 2 µg/mL (≈ 1.38 µM); with B. subtilis ATCC 6051, 0.13 µg/mL (≈ 0.0897 µM); in the data set on S. aureus RN4220 (RN4220, read-out: MIC S. aureus RN4220), 1 µg/mL (≈ 0.69 µM); in the data set on S. epidermidis 1457 it was 2 µg/mL (≈ 1.38 µM). For the same compound, the MIC is over 32 µg/mL in the data set with A. baumannii M2; over 32 µg/mL with P. aeruginosa PAO1; 2 µg/mL (≈ 1.38 µM) in the data set on C. sporogenes ATCC 15579; 0.5 µg/mL (≈ 0.345 µM) in [6]; over 32 µg/mL in data set [2]; over 32 µg/mL in the data set with P. distasonis ATCC 8503. Also, the MIC in the data set with P. nigrescens ATCC 33563 was over 32 µg/mL; in data set [8] it was 1 to 2 µg/mL (≈ 0.69 to 1.38 µM). Also, the MBC is 8 µg/mL (≈ 5.52 µM) in data set [5] (setting [12]) and over 32 µg/mL in data set [5] (setting [13]). For the same compound, the MBCstat in data set [5] (stationary-phase cells of strain 4118) was over 32 µg/mL. Besides, in data set [9], the “antibacterial spectrum (in words)” value was “Gram-positive organisms”.
